The results in this text go back to patent US12514858B2, “CD38 inhibitors” (Astellas Engineered Small Molecules US, Incorporated, priority 2020, dated 2026).

SMILES strings stand for the structures. “And” between values parts separate entries of the source, which are not always exact repeats. Equal entries are not always repeated.

Chain of Human CD38 (P28907 whole entry): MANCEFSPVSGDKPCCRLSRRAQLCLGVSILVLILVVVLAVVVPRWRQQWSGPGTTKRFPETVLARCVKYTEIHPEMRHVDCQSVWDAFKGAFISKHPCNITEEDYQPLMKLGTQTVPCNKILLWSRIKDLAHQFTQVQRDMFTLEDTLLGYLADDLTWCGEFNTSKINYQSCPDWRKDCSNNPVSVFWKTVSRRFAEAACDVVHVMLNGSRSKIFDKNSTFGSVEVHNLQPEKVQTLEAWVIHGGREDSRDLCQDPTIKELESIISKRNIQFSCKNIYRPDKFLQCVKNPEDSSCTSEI

This assay addresses Human CD38 (Homo sapiens (Human), UniProt P28907). As to the kind of experiment: Determination of IC50 against human CD38 (CD38 Inhibitor Screening Assay Kit, glycohydrolase activity, fluorescence). The class given is biochemical. The conditions noted are these: CD38 hydrolase enzyme, 30 min preincubation at room temperature, F-NAD substrate, excitation 300 nm, emission 410 nm; read-out: hCD38 IC50. How it is done: CD38 hydrolase buffer (4×) was thawed on ice and 1×CD38 hydrolase buffer was prepared by diluting 4×CD38 hydrolase buffer with water. CD38 hydrolase enzyme was diluted to […] with 1×CD38 hydrolase buffer (10 ng/well). Master mix was prepared by mixing equal volumes of water and CD38 hydrolase buffer (4×) and 10 μl of the mix was added to all the wells. Following master mix addition, 10 μl of the inhibitors and 20 μl of CD38 hydrolase enzyme were added to the wells. For wells designated blank, 10 μl and 20 μl of 1× CD38 hydrolase buffer was added respectively in place of […]. The plate was covered and incubated 30 min at room temperature with slow shaking at 400 rpm. After 30 min incubation, the plate was removed and 10 μl of diluted F-NAD substrate was added to all the wells. The plate is incubated for 10 min, spun at 1200 rpm for 30 secs to remove bubbles and read in Tecan Spark using a fluorometer setting of excitation 300 nm and emission 410 nm. The reading for the blank was subtracted from all the values. IC50 for the test compounds were determined by using Graphpad prism software v7.0.
Consider `COCCO[C@H]1CC[C@H](NC(=O)c2cc(C(C)O)cc(-n3ccnc3)n2)CC1` (stereo partly drawn) [Ex. 38, 4-(1-Hydroxyethyl)-6-(1H-imidazol-1-yl)-N-((1r,4r)-4-(2-methoxyethoxy)cyclohexyl)picolinamide], for which the IC50 was 0.31 µM.
The value for `COCCO[C@H]1CC[C@H](NC(=O)c2cc(S(C)(=O)=O)cc(-n3ccnc3)n2)CC1` [Ex. 39, 6-(1H-imidazol-1-yl)-N-((1r,4r)-4-(2-methoxyethoxy)cyclohexyl)-4-(methylsulfonyl)picolinamide] was 0.137 µM.
The value for `COCCO[C@H]1CC[C@H](NC(=O)c2cc(C(C)(C)O)cc(-n3ccnc3)n2)CC1` [Ex. 40, 4-(2-Hydroxypropan-2-yl)-6-(1H-imidazol-1-yl)-N-((1r,4r)-4-(2-methoxyethoxy)cyclohexyl)picolinamide] was 1.9 µM; that for `O=C(N[C@H]1CC[C@H](OC(F)F)CC1)c1ccnc(-n2ccnc2)n1` [Ex. 41, N-((1r,4r)-4-(difluoromethoxy)cyclohexyl)-2-(1H-imidazol-1-yl)pyrimidine-4-carboxamide] was 0.016 µM.
The value for `Cc1cc(C(=O)N[C@H]2CC[C@H](OC(F)F)CC2)nc(-n2ccnc2)n1` [Ex. 42, N-((1r,4r)-4-(difluoromethoxy)cyclohexyl)-2-(1H-imidazol-1-yl)-6-methylpyrimidine-4-carboxamide] was 0.0048 µM; that for `COCCO[C@H]1CC[C@H](NC(=O)c2cc(C#N)cc(-n3ccnc3)n2)CC1` [Ex. 43, 4-Cyano-6-(1H-imidazol-1-yl)-N-((1r,4r)-4-(2-methoxyethoxy)cyclohexyl)picolinamide] was 0.017 µM; that for `Cc1cc(C(=O)N[C@H]2CC[C@H](OCCO)CC2)nc(-n2ccnc2)n1` [Ex. 44, N-((1r,4r)-4-(2-hydroxyethoxy)cyclohexyl)-2-(1H-imidazol-1-yl)-6-methylpyrimidine-4-carboxamide] was 0.012 µM.
In the case of `COCCO[C@H]1CC[C@H](NC(=O)c2cc(C(=O)O)nc(-n3ccnc3)n2)CC1` [Ex. 45], the 50% inhibitory concentration (IC50) came to 0.028 µM.
The value for `COCCO[C@H]1CC[C@H](NC(=O)c2cc(C)nc(-n3ccnc3)c2)CC1` [Ex. 46, 2-(1H-imidazol-1-yl)-N-((1r,4r)-4-(2-methoxyethoxy)cyclohexyl)-6-methylisonicotinamide] was 0.144 µM; that for `COCCO[C@H]1CC[C@H](NC(=O)c2cc(C#N)nc(-n3ccnc3)n2)CC1` [Ex. 47, 6-cyano-2-(1H-imidazol-1-yl)-N-((1r,4r)-4-(2-methoxyethoxy)cyclohexyl)pyrimidine-4-carboxamide] was 0.031 µM; that for `COCCO[C@H]1CC[C@H](NC(=O)c2cc(C(N)=O)nc(-n3ccnc3)n2)CC1` [Ex. 48, 2-(1H-imidazol-1-yl)-N-((1r,4r)-4-(2-methoxyethoxy)cyclohexyl)pyrimidine-4,6-dicarboxamide] was 0.018 µM.
Consider `COCCO[C@H]1CC[C@H](NC(=O)c2cc(CO)nc(-n3ccnc3)n2)CC1` [Ex. 49, 6-(hydroxymethyl)-2-(1H-imidazol-1-yl)-N-((1r,4r)-4-(2-methoxyethoxy)cyclohexyl)pyrimidine-4-carboxamide], for which the concentration for half-maximal inhibition (IC50) was found to be 0.015 µM.
The value for `[2H]c1nc([2H])n(-c2nc(C)cc(C(=O)N[C@H]3CC[C@H](OCCOC)CC3)n2)c1[2H]` [Ex. 50, 2-(1H-imidazol-1-yl-d3)-N-((1r,4r)-4-(2-methoxyethoxy)cyclohexyl)-6-methylpyrimidine-4-carboxamide] was 0.014 µM; that for `COCCO[C@H]1CC[C@H](NC(=O)c2cc(CF)nc(-n3ccnc3)n2)CC1` [Ex. 51, 6-(fluoromethyl)-2-(1H-imidazol-1-yl)-N-((1r,4r)-4-(2-methoxyethoxy)cyclohexyl)pyrimidine-4-carboxamide] was 0.017 µM; that for `COCCO[C@H]1CC[C@H](NC(=O)c2cc(C(F)F)nc(-n3ccnc3)n2)CC1` [Ex. 52, 6-(Difluoromethyl)-2-(1H-imidazol-1-yl)-N-((1r,4r)-4-(2-methoxyethoxy)cyclohexyl)pyrimidine-4-carboxamide] was 0.089 µM.
For `CCS(=O)(=O)N[C@H]1CC[C@H](NC(=O)c2ccnc(-n3ccnc3)n2)CC1` [Ex. 53, N-((1r,4r)-4-(ethylsulfonamido)cyclohexyl)-2-(1H-imidazol-1-yl)pyrimidine-4-carboxamide] the value was 0.0166 µM and 0.0088 µM.
The value for `CO[C@]1(C)CC[C@@H](NC(=O)c2ccnc(-n3ccnc3)n2)CC1` [Ex. 54, 2-(1H-imidazol-1-yl)-N-((1r,4r)-4-methoxy-4-methylcyclohexyl)pyrimidine-4-carboxamide] was 0.028 µM.
`COCCO[C@H]1CC[C@H](NC(=O)c2cc(C3CC3)nc(-n3ccnc3)n2)CC1` [Ex. 56, 6-cyclopropyl-2-(1H-imidazol-1-yl)-N-((1r,4r)-4-(2-methoxyethoxy)cyclohexyl) pyrimidine-4-carboxamide]: the IC50 is 0.05 µM.
The value for `C=Cc1cc(C(=O)N[C@H]2CC[C@H](OCCOC)CC2)nc(-n2ccnc2)c1` [Ex. 57, 6-(1H-imidazol-1-yl)-N-((1r,4r)-4-(2-methoxyethoxy)cyclohexyl)-4-vinylpicolinamide] was 0.04 µM.
The value for `CCO[C@H]1CC[C@H](NC(=O)c2ccnc(-n3ccnc3)n2)CC1` [Ex. 58, N-((1r,4r)-4-ethoxycyclohexyl)-2-(1H-imidazol-1-yl)pyrimidine-4-carboxamide] was 0.0165 µM; that for `COCCO[C@H]1CC[C@H](NC(=O)c2cc(C(F)F)cc(-n3ccnc3)n2)CC1` [Ex. 59, 4-(difluoromethyl)-6-(1H-imidazol-1-yl)-N-((1r,4r)-4-(2-methoxyethoxy)cyclohexyl)picolinamide] was 0.0209 µM.
The value for `COCCO[C@H]1CC[C@@H](NC(=O)c2cc(C)nc(-n3ccnc3)n2)CC1` [Ex. 60, 2-(1H-imidazol-1-yl)-N-((1s,4s)-4-(2-methoxyethoxy)cyclohexyl)-6-methylpyrimidine-4-carboxamide] was 0.0024 µM; that for `COCCO[C@H]1CC[C@H](NC(=O)c2cc(OC)cc(-n3ccnc3)n2)CC1` [Ex. 62, 6-(1H-imidazol-1-yl)-4-methoxy-N-((1r,4r)-4-(2-methoxyethoxy)cyclohexyl) picolinamide] was 0.0867 µM; that for `COCCO[C@H]1C[C@H](NC(=O)c2ccnc(-n3ccnc3)n2)C1` [Ex. 65, 2-(1H-imidazol-1-yl)-N-((1r,3r)-3-(2-methoxyethoxy)cyclobutyl)pyrimidine-4-carboxamide] was 0.227 µM.
